In patent US12325697B2 (Nimbus Clio, Inc., priority 2021, dated 2025):

What was measured:
[1] = biological target: Recombinant human Cbl-b (aa 36-427) (Homo sapiens (Human), UniProt Q13191); assay: Cbl-b Biochemical Assay (TR-FRET); details: read-out: TR-FRET hCbl-b IC50
In short: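 Two-step TR-FRET: 6 nM biotinylated Cbl-b preincubated 30-60 min with compound, then 60 min at RT with 1-2.5 nM Src-Zap70 and 0.5 mM ATP in HEPES pH 7.0 buffer, 1% DMSO. Stopped with 5 mM EDTA plus 100 nM UBE2D2-Ub-FL-BODIPY and 1 nM streptavidin-Tb, 60 min; 520 nm signal; IC50 from 4-parameter fit.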

[2] = tested on: Jurkat (clone E6-1) cells, NFAT luciferase reporter; assay: Jurkat Reporter Assay (NFAT Luciferase); type: cell-based; details: Homo sapiens, anti-CD3 stimulation, 6 hr, read-out: Jurkat NFAT EC50

Recombinant human Cbl-b (aa 36-427), sequence (Q13191 36-427): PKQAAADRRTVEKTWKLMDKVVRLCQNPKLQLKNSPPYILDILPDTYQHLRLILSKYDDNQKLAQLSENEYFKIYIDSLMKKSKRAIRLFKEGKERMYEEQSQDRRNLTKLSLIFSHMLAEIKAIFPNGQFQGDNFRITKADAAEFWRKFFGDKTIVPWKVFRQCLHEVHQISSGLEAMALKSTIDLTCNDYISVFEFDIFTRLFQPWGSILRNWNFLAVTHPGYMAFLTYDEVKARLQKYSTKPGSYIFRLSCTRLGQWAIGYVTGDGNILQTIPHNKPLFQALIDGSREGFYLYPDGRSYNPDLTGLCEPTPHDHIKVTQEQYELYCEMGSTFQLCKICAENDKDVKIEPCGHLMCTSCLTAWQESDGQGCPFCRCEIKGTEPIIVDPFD

Row | Structure (SMILES) | IC50 [1] | EC50 [2]
1 | CCNc1cc(-c2c(-c3nncn3C)cnn2C)cc(N2Cc3c(cc(CO[C@H]4CCC[C@H]4O)cc3C(F)(F)F)C2=O)n1 [ADI-1, 2-[6-(Ethylamino)-4-[2-methyl-4-(4-methyl-1,2,4-triazol-3-yl)pyrazol-3-yl]pyridin-2-yl]-6-({[(1S,2R)-2-hydroxycyclopentyl]oxy}methyl)-4-(trifluoromethyl)-3H-isoindol-1-one] | ≤ 0.2 µM | 0.2 to 1 µM
2 | Cn1cnnc1-c1ccccc1-c1cccc(N2Cc3c(cc(CO[C@@H]4CCC[C@@H]4O)cc3C(F)(F)F)C2=O)c1 [AV-3, 6-((((1R,2S)-2-Hydroxycyclopentyl)oxy)methyl)-2-(2′-(4-methyl-4H-1,2,4-triazol-3-yl)-[1,1′-biphenyl]-3-yl)-4-(trifluoromethyl)isoindolin-1-one] | 0.2 to 1 µM | 1 to 10 µM
3 | CCOc1cc(N2Cc3c(cccc3C(F)(F)F)C2=O)cc(C2(Cc3nncn3C)COC2)c1 [AHM-12, 2-(3-Ethoxy-5-[3-[(4-methyl-1,2,4-triazol-3-yl)methyl]oxetan-3-yl]phenyl)-4-(trifluoromethyl)-3H-isoindol-1-one] | 0.2 to 1 µM | 1 to 10 µM
4 | Cn1cnnc1-c1ccc(C#N)cc1-c1cccc(N2Cc3c(cc(CO)cc3C(F)(F)F)C2=O)c1 [ADM-6, 3′-[6-(Hydroxymethyl)-1-oxo-4-(trifluoromethyl)-3H-isoindol-2-yl]-6-(4-methyl-1,2,4-triazol-3-yl)-[1,1′-biphenyl]-3-carbonitrile] | 0.2 to 1 µM | 10 to 50 µM
5 | C[C@H](Cc1nncn1C)c1cc(Cl)nc(N2Cc3c(cccc3C(F)(F)F)C2=O)c1 [AHJ-11, (R)-2-(6-Chloro-4-(1-(4-methyl-4H-1,2,4-triazol-3-yl)propan-2-yl)pyridin-2-yl)-4-(trifluoromethyl)isoindolin-1-one] | 1 to 10 µM | 10 to 50 µM
6 | CCCn1cc(-c2nncn2C)c(-c2cc(NCC)nc(N3Cc4c(cccc4C(F)(F)F)C3=O)c2)n1 [AHD-9, 2-[6-(Ethylamino)-4-[4-(4-methyl-1,2,4-triazol-3-yl)-1-propylpyrazol-3-yl]pyridin-2-yl]-4-(trifluoromethyl)-3H-isoindol-1-one] | 10 to 50 µM | 10 to 50 µM
7 | CCNc1cc(-c2c(-c3nncn3C)cnn2C)cc(N2Cc3c(cc(COCC4(F)CCC4)cc3C(F)(F)F)C2=O)n1 [AFP-2, 2-[6-(Ethylamino)-4-[2-methyl-4-(4-methyl-1,2,4-triazol-3-yl)pyrazol-3-yl]pyridin-2-yl]-6-{[(1-fluorocyclobutyl)methoxy]methyl}-4-(trifluoromethyl)-3H-isoindol-1-one] | ≤ 0.2 µM | 0.2 to 1 µM
8 | CCNc1cc(-c2ccc(CO)cc2-c2nncn2C)cc(N2Cc3c(cccc3C(F)(F)F)C2=O)n1 [AFD-1, 2-[6-(ethylamino)-4-[4-(hydroxymethyl)-2-(4-methyl-1,2,4-triazol-3-yl)phenyl]pyridin-2-yl]-4-(trifluoromethyl)-3H-isoindol-1-one] | ≤ 0.2 µM | 10 to 50 µM
9 | Cn1cnnc1-c1cc(C#N)ccc1-c1ccnc(N2Cc3c(cc(CO)cc3C(F)(F)F)C2=O)c1 [AEX-2, 4-{2-[6-(Hydroxymethyl)-1-oxo-4-(trifluoromethyl)-3H-isoindol-2-yl]pyridin-4-yl}-3-(4-methyl-1,2,4-triazol-3-yl) benzonitrile] | ≤ 0.2 µM | 1 to 10 µM
10 | CCNc1cc(-c2nn(CC(C)C)cc2-c2nncn2C)cc(N2Cc3c(cccc3C(F)(F)F)C2=O)n1 [AGX-8, 2-[6-(Ethylamino)-4-[4-(4-methyl-1,2,4-triazol-3-yl)-1-(2-methylpropyl)pyrazol-3-yl]pyridin-2-yl]-4-(trifluoromethyl)-3H-isoindol-1-one] | 10 to 50 µM | 10 to 50 µM
11 | Cn1cnnc1-c1ccccc1-c1cccc(N2Cc3c(cc(CO[C@@H]4CCC[C@H]4O)cc3C(F)(F)F)C2=O)c1 [ADL-4, 6-({[(1R,2R)-2-Hydroxycyclopentyl]oxy}methyl)-2-[2′-(4-methyl-1,2,4-triazol-3-yl)-[1,1′-biphenyl]-3-yl]-4-(trifluoromethyl)-3H-isoindol-1-one] | ≤ 0.2 µM | 1 to 10 µM
12 | Cc1ccc2c(c1)C(=O)N(c1cc(-c3ccc(F)cc3-c3nncn3C)cc(C(C)C)n1)C2 [AFY-1, 2-(4-(4-fluoro-2-(4-methyl-4H-1,2,4-triazol-3-yl)phenyl)-6-isopropylpyridin-2-yl)-6-methylisoindolin-1-one] | 1 to 10 µM | 10 to 50 µM
13 | CCNc1cc(-c2c(-c3nncn3C)cnn2C)cc(N2Cc3c(cc(COc4cnoc4)cc3C(F)(F)F)C2=O)n1 [ADE-2, 2-[6-(Ethylamino)-4-[2-methyl-4-(4-methyl-1,2,4-triazol-3-yl)pyrazol-3-yl]pyridin-2-yl]-6-[(1,2-oxazol-4-yloxy)methyl]-4-(trifluoromethyl)-3H-isoindol-1-one] | ≤ 0.2 µM | 1 to 10 µM
14 | CN1CCC(OCc2cc3c(c(C(F)(F)F)c2)CN(c2cccc(-c4ccccc4-c4nncn4C)c2)C3=O)CC1 [BC-4, 2-(2′-(4-Methyl-4H-1,2,4-triazol-3-yl)-[1,1′-biphenyl]-3-yl)-6-(((1-methylpiperidin-4-yl)oxy)methyl)-4-(trifluoromethyl)isoindolin-1-one] | 0.2 to 1 µM | 1 to 10 µM
15 | CCOc1cc(-c2ccc(C#N)cc2-c2nncn2C)cc(N2Cc3c(cc(COCCNC)cc3C(F)(F)F)C2=O)n1 [AHE-4] | ≤ 0.2 µM | 1 to 10 µM
16 | C[C@@H](Cc1nncn1C)c1cc(NS(C)(=O)=O)nc(N2Cc3c(cccc3C(F)(F)F)C2=O)c1 [AHL-8, N-[4-[(2S)-1-(4-Methyl-1,2,4-triazol-3-yl)propan-2-yl]-6-[1-oxo-4-(trifluoromethyl)-3H-isoindol-2-yl]pyridin-2-yl]methanesulfonamide] | 10 to 50 µM | 10 to 50 µM
17 | Cn1cnnc1-c1cc(C(N)=O)ccc1-c1cccc(N2Cc3c(cc(CO)cc3C(F)(F)F)C2=O)c1 [ADK-1, 3′-[6-(Hydroxymethyl)-1-oxo-4-(trifluoromethyl)-3H-isoindol-2-yl]-2-(4-methyl-1,2,4-triazol-3-yl)-[1,1′-biphenyl]-4-carboxamide] | 1 to 10 µM | 10 to 50 µM
18 | Cn1cnnc1-c1cc(C#N)ccc1-c1cccc(N2Cc3c(cc(CNCCO)cc3C(F)(F)F)C2=O)c1 [AEA-2, 3′-(6-{[(2-Hydroxyethyl)amino]methyl}-1-oxo-4-(trifluoromethyl)-3H-isoindol-2-yl)-2-(4-methyl-1,2,4-triazol-3-yl)-[1,1′-biphenyl]-4-carbonitrile] | ≤ 0.2 µM | 1 to 10 µM
19 | Cn1cnnc1-c1cc(C#N)ccc1-c1cc(C2CC2)nc(N2Cc3c(cc(COCCO)cc3C(F)(F)F)C2=O)c1 [AHF-4, 4-(2-Cyclopropyl-6-{6-[(2-hydroxyethoxy)methyl]-1-oxo-4-(trifluoromethyl)-3H-isoindol-2-yl}pyridin-4-yl)-3-(4-methyl-1,2,4-triazol-3-yl)benzonitrile] | ≤ 0.2 µM | < 0.2 µM
20 | CCNc1cc(-c2c(-c3nncn3C)cnn2C)cc(N2Cc3c(cc(CN(C)CC4(OC)CCC4)cc3C(F)(F)F)C2=O)n1 [AEK-3, 2-(6-(Ethylamino)-4-(1-methyl-4-(4-methyl-4H-1,2,4-triazol-3-yl)-1H-pyrazol-5-yl)pyridin-2-yl)-6-((((1-methoxycyclobutyl)methyl)(methyl)amino)methyl)-4-(trifluoromethyl)isoindolin-1-one] | ≤ 0.2 µM | 0.2 to 1 µM
21 | Cn1cnnc1-c1cc(C#N)ccc1-c1cccc(N2Cc3c(cc(CO)cc3C(F)(F)F)C2=O)c1 [ADG-3, 3′-[6-(Hydroxymethyl)-1-oxo-4-(trifluoromethyl)-3H-isoindol-2-yl]-2-(4-methyl-1,2,4-triazol-3-yl)-[1,1′-biphenyl]-4-carbonitrile] | ≤ 0.2 µM | 10 to 50 µM
22 | COc1ccc2c(c1)CN(c1cc(-c3ccccc3-c3nncn3C)cc(C3CC3)n1)C2=O [AER-1] | ≤ 0.2 µM | 10 to 50 µM
23 | CCNc1cc(-c2c(-c3nncn3C)cnn2C)cc(N2Cc3c(cc(CNCCOCCOCCOCCNC(=O)CCc4ccc5n4[B-](F)(F)[N+]4=C(c6ccc[nH]6)C=CC4=C5)cc3C(F)(F)F)C2=O)n1 [ACZ-5] | ≤ 0.2 µM | 10 to 50 µM
24 | Cn1cnnc1-c1cc(C#N)ccc1-c1cccc(N2Cc3c(cc(CN[C@@H]4CCC[C@@H]4O)cc3C(F)(F)F)C2=O)c1 [BE-3, 3′-(6-((((1R,2S)-2-Hydroxycyclopentyl)amino)methyl)-1-oxo-4-(trifluoromethyl)isoindolin-2-yl)-2-(4-methyl-4H-1,2,4-triazol-3-yl)-[1,1′-biphenyl]-4-carbonitrile] | ≤ 0.2 µM | < 0.2 µM
25 | CN(Cc1cc2c(c(C(F)(F)F)c1)CN(c1cc(-c3ccc(C#N)cc3-c3nncn3C)cc(C3CC3)n1)C2=O)C(=O)OC(C)(C)C [AGY-3, tert-Butyl N-[(2-{4-[4-cyano-2-(4-methyl-1,2,4-triazol-3-yl)phenyl]-6-cyclopropylpyridin-2-yl}-3-oxo-7-(trifluoromethyl)-1H-isoindol-5-yl)methyl]-N-methylcarbamate] | ≤ 0.2 µM | 0.2 to 1 µM
26 | Cn1cnnc1-c1ccccc1-c1cccc(N2Cc3c(cc(Br)cc3C(F)(F)F)C2=O)c1 [AY-1, 6-Bromo-2-(2′-(4-methyl-4H-1,2,4-triazol-3-yl)-[1,1′-biphenyl]-3-yl)-4-(trifluoromethyl)isoindolin-1-one] | 0.2 to 1 µM | 10 to 50 µM
27 | Cn1cnnc1-c1ccccc1-c1cc(N2Cc3c(cc(CO)cc3C(F)(F)F)C2=O)nc(N2Cc3c(cc(CO)cc3C(F)(F)F)C2=O)c1 [ACX-2, 6-(Hydroxymethyl)-2-{6-[6-(hydroxymethyl)-1-oxo-4-(trifluoromethyl)-3H-isoindol-2-yl]-4-[2-(4-methyl-1,2,4-triazol-3-yl)phenyl]pyridin-2-yl}-4-(trifluoromethyl)-3H-isoindol-1-one] | 10 to 50 µM | 10 to 50 µM
